System: microorganism causing Treponema dysentery
Assay: pigs infected with Treponema dysentery (Example VI)
Format: in vivo
From the text: Twenty pigs, 3 months old, were infected with the microorganism causing Treponema dysentery by administering to them feed mixed with a homogenous mixture of contents of the intestines and intestinal mucous membranes of two animals suffereing from the disease. The infected pigs were divided into four groups of five animals each and the animals were fed with the feed as a slurry diluted 1:1 with water for 1 week. The total amount of feed per animal was 1.2 kg each day and was given in two portions.
After 5 days, the first symptoms of the disease were observed from the thin faeces and confirmed by a microbiological investigation of the faeces and […] a week, the animals were treated as follows:
group 2: 100 ppm of tylosin were added to the feed;
group 3: 25ppm of dihydromocimycin were added to the feed; and
group 4: 50 ppm of dihydromocimycin were added to the feed.
The antibiotic-enriched feed was administered for a week. After that week, feed without any antibiotic was given again. Recovery from the infection was observed from the weights of the animals and from inspection samples of the faeces, macroscopically from their consistencies, and microscopically by means of a specific immuno-fluoroescence technique. During the test, one animal of each of groups 1, 3 and 4 died.
The results are shown in the following Table wherein the weights indicated are the averages at that time of the still living animals. The consistency of the faeces is indicated as follows:
+ means thin liquid; ± means thick liquid; - means normal. The results of the immuno-fluorescence technique are indicated quantitatively by indicating the number of Treponemas in the visual field: 5 means very crowded; 4 means many; 3 means about 10 Treponemas; 2 means 1 or 2 Treponemas, 1 means more visual fields necessary to find one Treponema, and - means negative.

[1] = dihydromocimycin 50 ppm, after 3 weeks, one symbol per animal

## CC=CC=CC1OC(O)(C(CC)C(=O)NCC=CC=C(C)C(OC)C(C)C2OC(C=CC=CC=C(C)C(=O)C3=C(O)CCNC3=O)C(O)C2O)C(O)C(O)C1(C)C (centres unmarked) [dihydromocimycin]
Administered amounts taken into account
  activity relative to tylosin: at least 4 times
Dihydromocimycin 25 ppm group, after 1 week (start of antibiotics)
  Weights: 21.3 kg
Dihydromocimycin 25 ppm group, just before infection (baseline)
  Weights: 24.2 kg
Dihydromocimycin 25 ppm, after 2 weeks
  Weights: 20.2 kg
Dihydromocimycin 25 ppm, after 3 weeks
  Weights: 24.0 kg
Dihydromocimycin 50 ppm group, after 1 week (start of antibiotics)
  Weights: 21.6 kg
Dihydromocimycin 50 ppm group, just before infection (baseline)
  Weights: 23.4 kg
Dihydromocimycin 50 ppm, after 2 weeks
  Weights: 21.2 kg
Dihydromocimycin 50 ppm, after 3 weeks
  Weights: 23.0 kg
[1]
  Faeces consistency: -- +-
  Immunofluorescence: -- -- -- --
Faeces consistency and immunofluorescence
  speed of cure compared with tylosin: cured markedly faster than the animals treated with tylosin
Group 3, dihydromocimycin 25 ppm
  animals died during the test: one
Group 4, dihydromocimycin 50 ppm
  animals died during the test: one
